Laboratory results reported in patent US20050123560A1, “High purity and water dispersible extract and formulations of larrea tridentata leaf resin, and methods of making and using the same” (priority 2003, published 2005).

Experiments:
[1] = animal studies, ingestion; cited from earlier work
[2] = Reduction of oxidized NDGA in methanolic solution by reducing agents, followed by chromatography; conditions: reducing agent at 100 mg/ml in methanolic solution of oxidized NDGA

## CC(Cc1ccc(O)c(O)c1)C(C)Cc1ccc(O)c(O)c1 (stereo not drawn) [NDGA, nordihydroguaiaretic acid]
[1]
  kidney toxicity: evidence of kidney toxicity

## O=C1O[C@H]([C@@H](O)CO)C(O)=C1O [ascorbic acid]
[2]
  time to reduce oxidized NDGA: approximately 1 minute

## O=S([O-])S(=O)[O-].[Na+].[Na+] [sodium hydrosulfite]
[2]
  NDGA quinone remaining by chromatography after reduction: still detectable
